Reference: patent US20050026949A1, “Methods of therapeutic treatment using amounts of retinoids without regard to body weight” (Allergan, Inc., priority 2003, published 2005)

Legend:
Format in all cases: in vivo, human
[1] = system: patients having nodulocystic acne; test: Two placebo-controlled dose-ranging safety studies of oral tazarotene (Example 5); conditions: for incidence of joint disorder: placebo 0%; for incidence of arthralgia: placebo 6%; for incidence of myalgia: placebo 9%; for incidence of asthenia: placebo 13%; for incidence of dry skin: placebo 19%; for incidence of headache: placebo 28%; for incidence of cheilitis: placebo 31%; for depression: placebo 1 (2%); for emotional lability (all cases mild): placebo 2 (4%)
Description: Two placebo-controlled dose-ranging studies are conducted to evaluate the safety of oral tazarotene in patients having nodulocystic acne. In the first study, patients receive orally administered tazarotene at daily doses of 0.4 mg to 2.8 mg in 96 (71+25) patients (12 weeks treatment plus 12 weeks post-treatment). In the second study, daily doses of 0.75 mg to 6 mg tazarotene are administered to 181 patients (24 weeks treatment plus 12 weeks post-treatment).

patients = test: Two placebo-controlled 24-week safety studies of oral tazarotene plus dose-response evaluations (Example 3)
Description: Two multicenter, double-blind, randomized, placebo-controlled 24-week studies of identical design are conducted to evaluate the safety of oral tazarotene. In addition, 16- to 24-week dose-response evaluations are performed.
In the two safety trials, the incidence of adverse side effects with a 4.5 mg dose administered orally once daily is compared to the incidence of the same side effects with a placebo. […] The majority of these were mild in severity and typical of adverse effects associated with oral retinoids.

[2] = system: patient with severe psoriasis; test: Patient with severe psoriasis taking Ortho-Novum treated with tazarotene (Example 9)
Excerpt: The patient presents symptoms of severe psoriasis. The symptoms include lesions approximately 4 to 10 centimeters across appearing as raised patches of wine red skin many of which are covered in silvery white scales. The lesions are mostly dry and rough, and quite often noticeably warm to the touch. The lesions are present on the elbows, knees, scalp, and groin area. The patient experiences intense burning and itching associated with the lesions.
The patient is currently taking Ortho-Novum® for contraception.
Tazarotene at a dose of 6 mg per day is prescribed.

[3] = PK and PD interaction studies of oral tazarotene with oral contraceptives (Example 8)
Description: It is the objective of this study to determine if there are pharmacokinetic (PK) and pharmacodynamic (PD) interactions between tazarotene and commonly prescribed oral contraceptives (OCs) when coadministered together.
Three separate clinical studies are conducted to evaluate the PK and PD interactions of oral tazarotene and OCs in healthy volunteers. Two studies evaluate daily doses of norethindrone (NE)/ethinyl estradiol (EE) with daily doses of tazarotene 1.1 mg (N=27) and 6 mg (N=29). The third study assesses the daily doses of norgestimate (NGM)/EE with daily doses of tazarotene 6 mg (N=26). OCs are administered for three consecutive menstrual cycles. Daily doses of tazarotene are started during the 2nd cycle and continued through the end of the studies. PK parameters for EE, NE, and NGM (AUC0-24 and Cmax) are determined before tazarotene dosing and after tazarotene dosing on day 6 of the 2nd and 3rd cycles. Serum concentrations of luteinizing hormone (LH) and follicle-stimulating hormone (FSH)-markers of contraceptive efficacy are also evaluated before tazarotene dosing and after tazarotene dosing on days 2, 4, and 6 of the 2nd and 3rd cycles. Serum progesterone levels are assessed on days 18 and 20 of the 2nd and 3rd cycles.
The plasma of each subject is tested for Cmax and AUC of tazarotenic acid, the primary active retinoid agent in systemic circulation as the result of the oral administration of tazarotene.

[4] = system: patients with moderate to very severe plaque psoriasis; test: Open-label extension study of oral tazarotene (Example 4); conditions: 4.5 mg once daily, 12-week extension treatment period, both groups
[5] = 4.5 mg orally once daily, placebo 0%
[6] = 4.5 mg orally once daily, placebo 1%
[7] = 4.5 mg orally once daily, placebo 2%
[8] = 4.5 mg orally once daily, placebo 3%
[9] = 4.5 mg orally once daily, placebo 8%
[10] = 4.5 mg orally once daily, placebo <1%

For `CCOC(=O)c1ccc(C#Cc2ccc3c(c2)C(C)(C)CCS3)nc1` [tazarotene], the “changes in urinalysis, chemistry, or hematology measures (including liver function tests, triglycerides, total cholesterol, HDL cholesterol)” value ([1]; 0.4 mg to 6 mg daily) was “no consistent dose-related clinically significant changes”, the “ligament calcification, osteophyte formation, or changes in serum bone alkaline phosphatase, serum amino terminal telopeptides, or bone density” value ([1]; 0.4 mg to 6 mg daily) was “not associated with any clinically significant” and the “patients withdrawing due to adverse events” value (“patients withdrawing due” for short) ([1]; 0.75 mg) was 2 patients. The “incidence of joint disorder” value ([1]; 2.8 mg, n=11) was 27%, the incidence of arthralgia ([1]; 2.8 mg, n=11) was 9% and the incidence of myalgia ([1]; 2.8 mg, n=11) was 0%. The incidence of asthenia ([1]; 2.8 mg, n=11) was 0%, the “incidence of dry skin” value ([1]; 2.8 mg, n=11) was 18% and the incidence of headache ([1]; 2.8 mg, n=11) was 9%. For the same molecule, the incidence of cheilitis ([1]; 2.8 mg, n=11) was 64%, the “patients withdrawing due” value ([1]; 3 mg) was 2 patients and the “cheilitis, mild” value ([1]; 3 mg group) was 25 patients. The “cheilitis, moderate” value ([1]; 3 mg group) was 3 patients, the “cheilitis, severe” value ([1]; 3 mg group) was 1 patient and the “dry skin, mild” value ([1]; 3 mg group) was 11 patients. For the same molecule, the “dry skin, moderate” value ([1]; 3 mg group) was 2 patient, the depression ([1]; 3 mg group (2 mild, 1 severe)) was 3 (8%) patients (%) and the “emotional lability (all cases mild)” value ([1]; 3 mg group) was 1 (3%) patient (%). For the same molecule, the “incidence of joint disorder” value ([1]; 3 mg, n=37) was 14%, the incidence of arthralgia ([1]; 3 mg, n=37) was 8% and the incidence of myalgia ([1]; 3 mg, n=37) was 16%. For the same molecule, the incidence of asthenia ([1]; 3 mg, n=37) was 19%, the “incidence of dry skin” value ([1]; 3 mg, n=37) was 35% and the incidence of headache ([1]; 3 mg, n=37) was 19%. For the same molecule, the incidence of cheilitis ([1]; 3 mg, n=37) was 78%, the “patients withdrawing due” value ([1]; 6 mg) was 1 patients and the “cheilitis, mild” value ([1]; 6 mg group) was 27 patients. For the same molecule, the “cheilitis, moderate” value ([1]; 6 mg group) was 6 patients, the “cheilitis, severe” value ([1]; 6 mg group) was 1 patient and the “dry skin, mild” value ([1]; 6 mg group) was 17 patients. The “dry skin, moderate” value ([1]; 6 mg group) was 1 patient, the depression ([1]; 6 mg group) was “none” and the “emotional lability (all cases mild)” value ([1]; 6 mg group) was 5 (14%) patient (%). The “incidence of joint disorder” value ([1]; 6 mg, n=36) was 19%, the incidence of arthralgia ([1]; 6 mg, n=36) was 28% and the incidence of myalgia ([1]; 6 mg, n=36) was 25%. For the same molecule, the incidence of asthenia ([1]; 6 mg, n=36) was 19%, the “incidence of dry skin” value ([1]; 6 mg, n=36) was 50% and the incidence of headache ([1]; 6 mg, n=36) was 36%. For the same molecule, the incidence of cheilitis ([1]; 6 mg, n=36) was 94%, the “patients withdrawing from either study due to adverse events” value ([1]; 7/277, all groups incl. placebo) was 2.5% and the “dry skin, severe” value ([1]; all groups) was “No patient has severe dry skin”. The “incidence of patients discontinuing due to adverse effects” value (“incidence of patients discontinuing due” for short) (patients; 4.5 mg (n=348)) was 3%, the “incidence of ocular, auditory, or thyroid problems” value (patients; 4.5 mg orally once daily vs placebo) was “no statistically significant between-group difference” and the incidence of agitation (patients; [5]) was under 1%. For the same molecule, the incidence of dermatitis (patients; [5]) was 1%, the incidence of hyperglycemia (patients; [5]) was 2% and the “incidence of foot pain” value (patients; [6]) was 3%. For the same molecule, the “incidence of joint disorder” value (patients; [6]) was 4%, the “incidence of nasal dryness” value (patients; [6]) was 4% and the incidence of rash (patients; [6]) was 3%. The “incidence of altered hormone levels (elevated TSH and T4, decreased T4, abnormal thyroid function test)” value (patients; [7]) was 0%, the incidence of depression (patients; [7]) was 1% and the “incidence of back pain” value (patients; [8]) was 7%. The “incidence of emotional lability” value (patients; [8]) was 3%, the incidence of arthralgia (patients; [9]) was 17% and the incidence of myalgia (patients; [9]) was 14%. For the same molecule, the incidence of headache (patients; 4.5 mg orally once daily, placebo 12%) was 19%, the “incidence of dry skin” value (patients; 4.5 mg orally once daily, placebo 15%) was 24% and the incidence of cheilitis (patients; 4.5 mg orally once daily, placebo 17%) was 66%. The incidence of anxiety (patients; [10]) was 1%, the incidence of psychosis (patients; [10]) was 0% and the “incidence of psychotic depression” value (patients; [10]) was 0%. The “incidence of patients discontinuing due” value (patients; 6.3 mg (n=16)) was 13%, the “incidence of patients discontinuing due” value (patients; 0.4 to 1.1 mg oral tazarotene (n=105)) was “approximately 2%” and the “incidence of patients discontinuing due” value (patients; 2.1 to 2.8 mg oral tazarotene (n=21)) was 10%. For the same molecule, the “incidence of patients discontinuing due” value (patients; w.2 mg (n=14)) was 0%, the “psoriasis symptoms and lesions” value ([2]; 6 mg per day, after 30 days) was “symptoms of itching and burning are relieved and the severity of their lesions are substantially lessened” and the “serum FSH and LH levels” value ([2]; tazarotene 6 mg per day with Ortho-Novum) was “remain within the normal ranges”. The “effect on PK or efficacy of NE/EE and NGM/EE oral contraceptives” value ([3]; orally, up to 6 mg once daily) was “does not affect”, the “90% confidence intervals of AUC0-24 and Cmax for EE, NE, and NGM” value ([3]; tazarotene 1.1 mg or 6 mg daily with NE/EE, 6 mg daily with NGM/EE) was “within the 80-125% boundary” and the “90% confidence intervals of FSH and LH” value ([3]; tazarotene coadministered with oral contraceptives) was “generally within the 80-125% boundary”. The “90% confidence intervals of progesterone concentrations” value ([3]; tazarotene coadministered with oral contraceptives, days 18 and 20 of 2nd and 3rd cycles) was “within the 80-125% boundary”, the “serum FSH and LH levels” value ([3]; tazarotene coadministered with oral contraceptives, follicular phase) was “remain within the normal ranges” and the incidence of asthenia [4] was 6%. The “incidence of back pain” value [4] was 11%, the incidence of headache [4] was 11% and the incidence of infection [4] was 10%. For the same molecule, the incidence of myalgia [4] was 15%.
